Laboratory results published in EP3782997A1, “FUSED PYRIMIDINE COMPOUNDS AND PHARMACEUTICAL COMPOSITIONS THEREOF FOR THE TREATMENT OF FIBROTIC DISEASES” (Galapagos N.V., priority 2019, dated 2021).

Molecular target: hENPP2 (Homo sapiens, UniProt Q13822)
Experiment: Human ENPP2 (hENPP2) biochemical assay using LPC as substrate
Conditions: 150 µM LPC (palmitoyl 16:0), 37°C for 30 min
Outline: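 Enzyme at 1 or 3 µg/mL final in Tris-HCl pH 8.5, NaCl, KCl, CaCl2, fatty-acid-free BSA; reaction started with 150 µM LPC 16:0 (as added), 30 min at 37°C. Released choline developed with choline oxidase/peroxidase/TOOS/4-aminoantipyrine plus EGTA stop, read at 555 nm after 30 min; 1/3 dilutions from 50 µM give IC50.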

IC50 [nM] | SMILES
0.01 to 100 | C[C@@H]1C[C@H](N2Cc3cnc(Nc4ccc(C(F)(F)F)cc4)nc3C2)CCN1C(=O)c1c[nH]nn1 [compound 175, [(2R,4R)-2-methyl-4-[2-[4-(trifluoromethyl)anilino]-5,7-dihydropyrrolo[3,4-d]pyrimidin-6-yl]-1-piperidyl]-(1H-triazol-4-yl)methanone]
0.01 to 100 | Cc1cc(C)cc(Nc2ncc3c(n2)CN([C@@H]2CCN(C(=O)c4nn[nH]c4C)[C@H](C)C2)C3)c1 [compound 176, [(2R,4R)-4-[2-(3,5-dimethylanilino)-5,7-dihydropyrrolo[3,4-d]pyrimidin-6-yl]-2-methyl-1-piperidyl]-(5-methyl-1H-triazol-4-yl)methanone]
0.01 to 100 | C[C@@H]1C[C@H](N2Cc3cnc(Nc4ccc(S(F)(F)(F)(F)F)cc4)nc3C2)CCN1C(=O)c1ccnc(NS(C)(=O)=O)c1 [compound 177, N-[4-[(2R,4R)-2-methyl-4-[2-[4-(pentafluoro-λ^6-sulfanyl)anilino]-5,7-dihydropyrrolo[3,4-d]pyrimidin-6-yl]piperidine-1-carbonyl]-2-pyridyl]methanesulfonamide]
0.01 to 100 | C[C@@H]1C[C@@H](N2Cc3cnc(Nc4ccc(S(F)(F)(F)(F)F)cc4)nc3C2)CCN1C(=O)c1ccnc(NS(C)(=O)=O)c1 [compound 178, N-[4-[(2R,4S)-2-methyl-4-[2-[4-(pentafluoro-λ^6-sulfanyl)anilino]-5,7-dihydropyrrolo[3,4-d]pyrimidin-6-yl]piperidine-1-carbonyl]-2-pyridyl]methanesulfonamide]
0.01 to 100 | C[C@@H]1C[C@H](N2Cc3cnc(Nc4ccc(Cl)cc4)nc3C2)CCN1C(=O)c1ccnc(NS(C)(=O)=O)c1 [compound 179, N-[4-[(2R,4R)-4-[2-(4-chloroanilino)-5,7-dihydropyrrolo[3,4-d]pyrimidin-6-yl]-2-methyl-piperidine-1-carbonyl]-2-pyridyl]methanesulfonamide]
100 to 500 | C[C@@H]1C[C@@H](N2Cc3cnc(Nc4ccc(Cl)cc4)nc3C2)CCN1C(=O)c1ccnc(NS(C)(=O)=O)c1 [compound 180, N-[4-[(2R,4S)-4-[2-(4-chloroanilino)-5,7-dihydropyrrolo[3,4-d]pyrimidin-6-yl]-2-methyl-piperidine-1-carbonyl]-2-pyridyl]methanesulfonamide]
0.01 to 100 | Cc1ccc(Nc2ncc3c(n2)CN([C@@H]2CCN(C(=O)c4ccnc(NS(C)(=O)=O)c4)[C@H](C)C2)C3)cc1 [compound 181, N-[4-[(2R,4R)-2-methyl-4-[2-(4-methylanilino)-5,7-dihydropyrrolo[3,4-d]pyrimidin-6-yl]piperidine-1-carbonyl]-2-pyridyl]methanesulfonamide]
500 to 1000 | Cc1ccc(Nc2ncc3c(n2)CN([C@H]2CCN(C(=O)c4ccnc(NS(C)(=O)=O)c4)[C@H](C)C2)C3)cc1 [compound 182, N-[4-[(2R,4S)-2-methyl-4-[2-(4-methylanilino)-5,7-dihydropyrrolo[3,4-d]pyrimidin-6-yl]piperidine-1-carbonyl]-2-pyridyl]methanesulfonamide]
0.01 to 100 | Cc1cc2[nH]nnc2cc1C(=O)N1CC[C@@H](N2Cc3cnc(Nc4ccc(C(F)(F)F)cc4)nc3C2)C[C@H]1C [compound 183, (6-methyl-1H-benzotriazol-5-yl)-[(2R,4R)-2-methyl-4-[2-[4-(trifluoromethyl)anilino]-5,7-dihydropyrrolo[3,4-d]pyrimidin-6-yl]-1-piperidyl]methanone]
0.01 to 100 | COc1cc(C)cc(Nc2ncc3c(n2)CN([C@@H]2CCN(C(=O)c4cc5nn[nH]c5cc4C)[C@H](C)C2)C3)c1 [compound 184, [(2R,4R)-4-[2-(3-methoxy-5-methyl-anilino)-5,7-dihydropyrrolo[3,4-d]pyrimidin-6-yl]-2-methyl-1-piperidyl]-(6-methyl-1H-benzotriazol-5-yl)methanone]
0.01 to 100 | COc1cc(C)cc(Nc2ncc3c(n2)CN([C@H]2CCN(C(=O)c4cc5nn[nH]c5cc4C)[C@H](C)C2)C3)c1 [compound 185, [(2R,4S)-4-[2-(3-methoxy-5-methyl-anilino)-5,7-dihydropyrrolo[3,4-d]pyrimidin-6-yl]-2-methyl-1-piperidyl]-(6-methyl-1H-benzotriazol-5-yl)methanone]
0.01 to 100 | C[C@@H]1C[C@H](N2Cc3cnc(Nc4ccc(C(F)(F)F)cc4)nc3C2)CCN1C(=O)c1ccnc(NS(C)(=O)=O)c1 [compound 186, N-[4-[(2R,4R)-2-methyl-4-[2-[4-(trifluoromethyl)anilino]-5,7-dihydropyrrolo[3,4-d]pyrimidin-6-yl]piperidine-1-carbonyl]-2-pyridyl]methanesulfonamide]
0.01 to 100 | COc1cc(C)cc(Nc2ncc3c(n2)CN([C@@H]2CCN(C(=O)c4ccnc(NS(C)(=O)=O)c4)[C@H](C)C2)C3)c1 [compound 187, N-[4-[(2R,4R)-4-[2-(3-methoxy-5-methyl-anilino)-5,7-dihydropyrrolo[3,4-d]pyrimidin-6-yl]-2-methyl-piperidine-1-carbonyl]-2-pyridyl]methanesulfonamide]
0.01 to 100 | C[C@@H]1C[C@H](N2Cc3cnc(Nc4ccc(F)cc4)nc3C2)CCN1C(=O)c1ccnc(NS(C)(=O)=O)c1 [compound 188, N-[4-[(2R,4R)-4-[2-(4-fluoroanilino)-5,7-dihydropyrrolo[3,4-d]pyrimidin-6-yl]-2-methyl-piperidine-1-carbonyl]-2-pyridyl]methanesulfonamide]
0.01 to 100 | COc1cccc(Nc2ncc3c(n2)CN([C@@H]2CCN(C(=O)c4ccnc(NS(C)(=O)=O)c4)[C@H](C)C2)C3)c1 [compound 189, N-[4-[(2R,4R)-4-[2-(3-methoxyanilino)-5,7-dihydropyrrolo[3,4-d]pyrimidin-6-yl]-2-methyl-piperidine-1-carbonyl]-2-pyridyl]methanesulfonamide]
0.01 to 100 | C[C@@H]1C[C@@H](N2Cc3cnc(Nc4ccc(C(F)(F)F)cc4)nc3C2)CCN1C(=O)c1ccnc(NS(C)(=O)=O)c1 [compound 190, N-[4-[(2R,4S)-2-methyl-4-[2-[4-(trifluoromethyl)anilino]-5,7-dihydropyrrolo[3,4-d]pyrimidin-6-yl]piperidine-1-carbonyl]-2-pyridyl]methanesulfonamide]
100 to 500 | COc1cc(C)cc(Nc2ncc3c(n2)CN([C@H]2CCN(C(=O)c4ccnc(NS(C)(=O)=O)c4)[C@H](C)C2)C3)c1 [compound 191, N-[4-[(2R,4S)-4-[2-(3-methoxy-5-methyl-anilino)-5,7-dihydropyrrolo[3,4-d]pyrimidin-6-yl]-2-methyl-piperidine-1-carbonyl]-2-pyridyl]methanesulfonamide]
> 1000 | C[C@@H]1C[C@@H](N2Cc3cnc(Nc4ccc(F)cc4)nc3C2)CCN1C(=O)c1ccnc(NS(C)(=O)=O)c1 [compound 192, N-[4-[(2R,4S)-4-[2-(4-fluoroanilino)-5,7-dihydropyrrolo[3,4-d]pyrimidin-6-yl]-2-methyl-piperidine-1-carbonyl]-2-pyridyl]methanesulfonamide]
> 1000 | COc1cccc(Nc2ncc3c(n2)CN([C@H]2CCN(C(=O)c4ccnc(NS(C)(=O)=O)c4)[C@H](C)C2)C3)c1 [compound 193, N-[4-[(2R,4S)-4-[2-(3-methoxyanilino)-5,7-dihydropyrrolo[3,4-d]pyrimidin-6-yl]-2-methyl-piperidine-1-carbonyl]-2-pyridyl]methanesulfonamide]
